Key:
DsRed-stDCyD = target: T1, DsRed-stDCyD (Salmonella typhimurium, UniProt Q8ZNT7); experiment: SypHer3s live-cell imaging of intracellular pH in HEK293T cells expressing pH-Control, substrates administered; format: cell-based, human; conditions: for selectivity test: enzyme response in comparison to βCDA: FIG. 1f; for ability to acidify cell compartments: cells expressing stDCyD
T1 construct: expressed in transfected cells; host or cells: HEK293 / HEK293T
Description: (§1) For live-cell imaging experiments, a HEPES-buffered physiological solution was used consisting of 2 mM CaCl2, 5 mM KCl, 138 mM NaCl, 1 mM MgCl2, 10 mM HEPES, 10 mM D-Glucose, and pH was adjusted to 7.43 using 1 M NaOH. For experiments with nigericin (N7143, Merck) and monensin (M5273, Merck), imaging buffered contained 5 mM KCl, 138 mM NaCl, 1 mM MgCl2, 20 mM HEPES, 10 mM D-Glucose, 0.2 mM EGTA and pH was adjusted to the desired value using either 1 M NaOH or 1M HCl. To prepare β-Chloro-D-alanine solutions, the powder was dissolved in imaging buffer and the pH was readjusted to 7.43.
(§2) Characterization studies have been performed in cultured human embryonic kidney cells (HEK293), grown in a high-glucose (4.5 g/L) complete medium including 10% FBS and 100 μg/ml streptomycin and 100 U/ml penicillin in a humidified incubator (37° C., 5% CO2). 24 hours before transfection, cells were seeded (˜3×10^5 cells per well) on a 30 mm glass coverslips No.1 (Glaswarenfabrik Karl Knecht Sondheim, Germany). At ˜70-80% confluency, cells were co-transfected with CMV-driven mammalian expression vectors (pLenti-MP2) encoding for differential targeted SypHer3s or DsRed-stDCyD enzymes using PolyJet transfection reagent according to the manufacturer's instructions. All imaging experiments were performed 24 h after transfection. HEK293T cells were cultured up to passage 30.
Widefield imaging experiments were performed on a Zeiss Axio Observer.Z1/7 (Carl Zeiss AG, Oberkochen, Germany) equipped with an LED light source Colibri 7 (423/44 nm, 469/38 nm, 555/30), PlanApochromat 20x/0.8 dry objective, Plan-Apochromat 40x/1.4 oil immersion objective, a monochrome CCD camera Axiocam 503. A custom-made pump-driven perfusion system was used to administrate and withdraw substrates to cells placed in a metal perfusion chamber (NGFI, Graz, Austria). SypHer signals were imaged by alternately exciting cells using a motorized dual-filter wheel equipped with beam splitters (FT455 (for SypHer low, F420) and FT495 (for SypHer high, F490)). Emissions were alternately collected using a bandpass filter (BP 525/50). DsRed-stDyCD emission was collected using the filter combinations FT570 (BS) and emission filter 605/70. During live-imaging data acquisition was performed using Zen Blue 3.1 Pro software (Carl Zeiss AG, Oberkochen, Germany). Confocal imaging was performed using a laser scanning confocal microscope LSM 800 (Zeiss, Germany) equipped with a Plan-Apochromat 40x/1.3 DIC (UV) VIS-IS oil immersion objective. SypHer biosensors were excited with a 488 nm and 405 nm laser, and emissions were collected using a 509 nm filter system. SypHer signals were acquired with an A GaAsP-PMT detector and 400-565 nm filter using a Multialkali-PMT detector. DsRed-stDCyD constructs were excited using a 561 nm laser, and the emission wavelength was captured between 616 and 700 nm. The digital detector gain for all channels was set at 1; detector gain was applied between 500 and 1000 V. Laser intensities were set between 0.90% and 0.95%, and the pinhole was set between 29 and 32 μm according to the expression level of the fluorescent proteins. Bright-field mode was imaged using a photodiode detector. Zen Blue 3.1 software (Zeiss, Germany) was used to determine regions of interest.

HEK293T cells [1] = experiment: Overcorrection of intracellular pH after acute acidification, with and without monensin and nigericin; format: cell-based, human; conditions: 10 μM nigericin and 10 μM monensin together
Description: FIG. 7. Overcorrection of intracellular pH levels following acute acidification. (left) Real-time traces of HEK293T cells expressing SypHer and pH-Control in response to 1 mM βCDA in the presence (pink curve and (right) bars, n= 3/15) and absence (green curve and (right) bars n= 3/13) 10 μM nigericin and 10 μM monensin that permeabilize the plasma membrane. Student's t-test has been applied.
as §1
Widefield imaging experiments were performed on a Zeiss Axio Observer.Z1/7 (Carl Zeiss AG, Oberkochen, Germany) equipped with an LED light source Colibri 7 (423/44 nm, 469/38 nm, 555/30), PlanApochromat 20x/0.8 dry objective, Plan-Apochromat 40x/1.4 oil immersion objective, a monochrome CCD camera Axiocam 503. […]

[2] = tested on: mouse primary dorsal root ganglion (DRG) neurons; experiment: Membrane potential imaging with voltage sensor ASAP2s in DRG neurons co-expressing pH-Control; format: cell-based; conditions: 10 mM βCDA versus high extracellular potassium (50 mM)
Description: (§3) Primary Neuron Culture: WT C57BL/6 mice were euthanized via cervical dislocation. Bilateral DRGs from all segments were dissected and then put in an ice-cold RPMI 1640 medium (R0883, Gibco). For enzymatic dissociation, ganglia were incubated with 100 U/mL collagenases (C9407, Sigma) in a neural medium containing 2% B27 (17504-044, Gibco), 2 mM Glutamax-I (35050-61, Gibco), 100 U penicillin, and […] (15140-122, Gibco) in Neural Basal Medium (NBA, 10888-022, Gibco) at 37C, 5% CO2. Following a 40 min incubation time, the medium containing collagenase was removed, and the ganglia were washed using Hank's buffered salt solution (H9269, Sigma). The ganglia were further enzymatically dissociated using 1 mg/mL trypsin (25300-054, Gibco) in the neural medium for 15 min at 37° C., 5% CO2. At the end of incubation, […] DNAse (D4513, Sigma) was added to the trypsin solution cell suspension to inhibit free DNA fragments, and the tissues were triturated by pipetting to obtain single cells. 30 min after incubation at 37° C., 5% CO2, the cell suspension was spun at 120 g for 3 min and resuspended neural medium supplemented with 10% fetal calf serum and […] trypsin inhibitor (T6522, Sigma) to inhibit enzymatic activity. […]

HEK293T cells [3] = experiment: SypHer3s live-cell imaging of intracellular pH in cells without the enzyme; format: cell-based, human
Description: as §1
as §2, with “30. […]” for “30.”

[4] = tested on: mouse primary dorsal root ganglion (DRG) neurons; experiment: SypHer3s imaging in primary DRG neurons expressing pH-Control; format: cell-based; conditions: different concentrations (10 or 1 mM, FIG. 1h)
Description: as §3

T1 sequence (Q8ZNT7 whole entry, added parts left off): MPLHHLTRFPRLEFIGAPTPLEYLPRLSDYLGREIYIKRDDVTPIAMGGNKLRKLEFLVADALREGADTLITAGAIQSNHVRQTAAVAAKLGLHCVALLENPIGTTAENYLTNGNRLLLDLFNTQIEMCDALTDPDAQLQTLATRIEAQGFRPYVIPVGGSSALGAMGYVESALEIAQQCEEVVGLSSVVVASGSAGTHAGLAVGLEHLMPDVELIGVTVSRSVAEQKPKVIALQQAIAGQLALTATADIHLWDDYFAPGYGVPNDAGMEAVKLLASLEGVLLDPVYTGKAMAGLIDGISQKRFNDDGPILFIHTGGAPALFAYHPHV

**Q.** With N[C@H](CS)C(=O)O [D-Cysteine] as the molecule, how does the “decrease in pHi” value (DsRed-stDCyD; 10 mM) read?
**A.** marginal decrease in pHi

**Q.** C[C@@H](N)C(=O)O [D-alanine] was tested. Which “selectivity test: enzyme response in comparison to βCDA” value (DsRed-stDCyD) did it give?
**A.** remained agnostic

**Q.** And the “ability to acidify cell compartments” value (DsRed-stDCyD)?
**A.** not

**Q.** How did the “intracellular pH overcorrection after withdrawal of 1 mM βCDA” value (HEK293T cells [1]) turn out when CC[C@@]1([C@@H]2O[C@@H]([C@H]3O[C@@](O)(CO)[C@H](C)C[C@@H]3C)C[C@@H]2C)CC[C@H]([C@]2(C)CC[C@]3(C[C@H](O)[C@@H](C)[C@@H]([C@@H](C)[C@@H](OC)[C@H](C)C(=O)O)O3)O2)O1 [monensin] was run?
**A.** diminished

**Q.** How did the “intracellular pH overcorrection after withdrawal of 1 mM βCDA” value (HEK293T cells [1]) turn out when CO[C@@H]1C[C@@H](C[C@H]2CC[C@H](C)[C@H]([C@@H](C)C(=O)O)O2)O[C@]2(O[C@](C)([C@H]3CC[C@@](C)([C@@H]4O[C@@H]([C@H]5O[C@@](O)(CO)[C@H](C)C[C@@H]5C)C[C@@H]4C)O3)C[C@H]2C)[C@@H]1C [nigericin] was run?
**A.** diminished

**Q.** N[C@H](CCl)C(=O)O [βCDA, β-chloro-D-alanine] was tested. Which “depolarization of membrane potential (ASAP2s)” value [2] did it give?
**A.** depolarized primary neurons even stronger than high extracellular potassium

**Q.** And the “SypHer response of cells only expressing SypHer” value (HEK293T cells [3]; different levels of substrate (FIG. 1e, right panel))?
**A.** remained unresponsive

**Q.** What about the “SypHer3s response of wild-type cells without the enzyme” value (HEK293T cells [3]; same high-concentration treatment (13.4 mM, FIG. 1c)) of the same molecule?
**A.** marginal response

**Q.** And the “biosensor signal after withdrawal of substrate” value (DsRed-stDCyD; after recovery, indicates cellular alkalization (FIGS. 1c, 1g, 5a))?
**A.** overshot the baseline

**Q.** What about the “SypHer response to different levels of substrate” value (DsRed-stDCyD; cells expressing pH-Control, constitutive administration of different levels (FIG. 1e)) of the same molecule?
**A.** concentration-dependent and fully reversible SypHer response

**Q.** And the “intracellular acidification documented by SypHer3s” value (DsRed-stDCyD; cells expressing pH-Control, high concentrations of βCDA (13.4 mM, FIG. 1c))?
**A.** robust intracellular acidification

**Q.** And the “ability to acidify cell compartments” value (DsRed-stDCyD)?
**A.** can acidify cell compartments

**Q.** What about the “SypHer3s signals in DRG neurons” value [4] of the same molecule?
**A.** robust SypHer3s signals

**Q.** With N[C@@H](CCl)C(=O)O [βCLA, β-chloro-L-alanine] as the molecule, how does the “selectivity test: enzyme response in comparison to βCDA” value (DsRed-stDCyD) read?
**A.** marginal responses

— patent US20260023087A1, “A Novel Chemogenetic Tool Permitting Modulation of Intracellular pH” (ISTANBUL MEDIPOL UNIVERSITESI, priority 2023, published 2026)
